Data from PubChem BioAssay (NCI).
Values joined by “and” are separate entries in the source; they are usually repeats but may differ in a detail not shown here. Equal values may be shown once.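 A five-concentration, 48-hour dose response in 96-well plates underlies each endpoint, interpolated linearly between surrounding concentrations. The concentration for 50% growth inhibition is given as GI50. At the TGI there is no net growth.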

Assays:
Assay in all cases: NCI anticancer screen, dose series, 48 h
[1] = system: SN12C renal
[2] = system: UACC-62 melanoma
[3] = system: UACC-257 melanoma
[4] = system: SR leukemia
[5] = system: SK-OV-3 ovarian
[6] = system: NCI-H522 lung
[7] = system: HOP-92 NSCLC
[8] = system: HCC-2998 colon
[9] = system: COLO 205 colon
[10] = system: M14 melanoma

Structure (SMILES)	GI50 [1]	TGI [1]	GI50 [2]	TGI [2]	GI50 [3]	TGI [3]	GI50 [4] [nM]	TGI [4] [µM]	GI50 [5]	TGI [5]	GI50 [6]	TGI [6]	GI50 [7]	TGI [7]	GI50 [8]	TGI [8]	GI50 [9]	TGI [9]	GI50 [10]	TGI [10]
Cc1ccc(NC(=O)/C=C/c2ccccc2)c(C(N)=O)c1	7760 nM	> 100 µM	3440 nM	> 80.8 µM	22500 nM	> 95.3 µM	881	20.1	3.26 µM	19.1 µM	1890 nM	9.06 µM	15500 nM	> 100 µM	5380 nM	42.5 µM	1680 nM	5.93 µM	2120 nM	> 100 µM
COc1cc2c(cc1OC(=O)CC(C)O)C1C(OC2=O)C(OC(C)=O)C=C2CCN(C)[C@H]21 (some centres undefined)	–	> 100 µM	–	> 100 µM	–	> 100 µM	–	> 100	–	57.2 µM	–	> 100 µM	–	44.5 µM	–	> 100 µM	–	> 100 µM	–	> 100 µM
CC1=C(N2CC2)C(=O)c2nc3n(c2C1=O)CCC3OC(=O)CCl (centres undefined)	–	0.267 µM	–	0.0696 µM	–	0.235 µM	–	13.6	–	0.29 µM	–	0.0617 µM	–	8.04 µM	–	0.136 µM	–	0.444 µM	–	0.0814 µM
CN(C)c1ccc(/C=C\c2cccc[n+]2C)cc1	17000 nM	> 100 µM	19800 nM	58 µM	7810 nM	> 100 µM	24800	> 100	4.85 µM	52 µM	10200 nM	> 100 µM	4850 nM	32.8 µM	3680 nM	39.2 µM	1220 nM	2.81 µM	10700 nM	> 100 µM
C[C@]12CCC3[C@@H](CC[C@@H]4c5nonc5CC[C@]34C)C1CCC(=O)N2 (some centres undefined)	–	> 100 µM	> 84000 nM	> 100 µM	–	> 100 µM	> 100000	> 100	–	> 100 µM	–	> 100 µM	40400 nM	> 95.1 µM	> 100000 nM	> 100 µM	–	> 100 µM	–	> 100 µM
CC(CN1CCN(CCOCCO)CC1)CN1c2ccccc2Sc2ccc(Cl)cc21 (centres undefined)	3860 nM	17.1 µM	1750 nM	3.44 µM	1490 nM	3.11 µM	3580	16.5	8.87 µM	21.8 µM	1710 nM	3.36 µM	1010 nM	4.63 µM	1910 nM	3.51 µM	1690 nM	3.18 µM	1850 nM	3.46 µM
CC(C)(C)c1n[nH]c(=S)n(/N=C/c2ccc(F)c(Oc3ccccc3)c2)c1=O	48500 nM	> 100 µM	38200 nM	> 100 µM	24200 nM	68.4 µM	> 100000	> 100	38.2 µM	> 100 µM	> 100000 nM	> 100 µM	27300 nM	> 100 µM	33200 nM	> 100 µM	38600 nM	> 100 µM	42000 nM	> 100 µM
CS(=O)(=O)Oc1cccc(/C=N/N=C(\N)NO)c1	–	> 100 µM	–	19.5 µM	–	> 100 µM	–	> 100	–	70.8 µM	–	> 100 µM	–	> 100 µM	–	59.1 µM	–	> 100 µM	–	> 100 µM
COc1ccc(-c2cc(-c3ccccc3)nc(SCCCC(=O)NO)n2)cc1	1610 nM	8 µM	756 nM	2.53 µM	1600 nM	8.34 µM	363	> 33.3	1.74 µM	5.54 µM	808 nM	4.32 µM	1710 nM	5.42 µM	1700 nM	3.81 µM	2080 nM	6.94 µM	894 nM	3.92 µM
Cc1ccc(C(=O)Nc2cccc(C(F)(F)F)c2)cc1Nc1nc(-c2cccnc2)nc2c1cnn2C	2450 nM and 1700 nM	13.8 µM and > 10 µM	628 nM and 335 nM	5.37 µM and 4.25 µM	2020 nM and 875 nM	8.28 µM and 4.76 µM	822	6.58	4.48 µM and 3.79 µM	22.2 µM and > 10 µM	4680 nM and 1370 nM	27.3 µM and 5.09 µM	1310 nM and 534 nM	5.13 µM and 5.01 µM	1110 nM and 632 nM	3.35 µM and 2.62 µM	1220 nM and 575 nM	5.79 µM and 3.65 µM	1050 nM and 442 nM	3.66 µM and 3.43 µM
O=C1C=C(Br)c2c(-c3ccccc3)oc3cccc1c23	–	> 100 µM	–	> 100 µM	–	> 100 µM	–	> 30.8	–	> 100 µM	–	> 100 µM	–	> 100 µM	–	> 100 µM	–	> 100 µM	–	98.2 µM
Cc1ccc(-c2cc(-c3ccc(C)cc3)nc(NCCNc3ccnc4cc(Cl)ccc34)n2)cc1	1630 nM	3.29 µM	1770 nM	3.38 µM	1980 nM	4.07 µM	623	> 100	1.75 µM	3.34 µM	1750 nM	3.51 µM	1230 nM	2.73 µM	1760 nM	3.28 µM	1690 nM	3.48 µM	1780 nM	3.65 µM
O=[N+]([O-])c1cccc(-c2nc3sccn3c2-c2ccnc(NCCCNS(=O)(=O)c3cccc(F)c3)n2)c1	2710 nM	44.8 µM	1160 nM	4.26 µM	2710 nM	8.27 µM	3100	> 100	5.82 µM	30.5 µM	2020 nM	7.97 µM	2800 nM	30.3 µM	6790 nM	> 100 µM	2460 nM	8.11 µM	2820 nM	12 µM
CCCCNCC(=O)O[C@]1(CC)C(=O)OCc2c1cc1n(c2=O)Cc2cc3ccccc3nc2-1	–	> 16.2 µM	–	0.925 µM	–	8.19 µM	–	0.0355	–	> 40.5 µM	–	4.82 µM	–	12.3 µM	–	8.76 µM	–	17.5 µM	–	7.23 µM
O=C1C(=O)N(c2ccc(Cl)c(Cl)c2)C(=O)C(=O)C1c1nc2ccccc2s1	–	> 100 µM	–	> 100 µM	–	> 100 µM	–	> 100	–	> 100 µM	–	> 100 µM	–	> 100 µM	–	> 100 µM	–	> 100 µM	–	> 100 µM
